Experimental data: patent US4456601A, “3-Chloro-pregnane derivatives and a process for the preparation thereof” (Richter Gedeon Vegyeszeti Gyar Rt., priority 1981, dated 1984)
Where two headings read alike, the source gives them in different places.

Assays:
[1] = system: ear inflammation provoked by croton oil; experiment: Inhibition of ear inflammation provoked by croton oil (local antiphlogistic effect); assay type: in vivo
Excerpt: (§1) Local antiphlogistic effect
(c) Inhibition of ear inflammation provoked by croton oil [Tonelli et al.: Endocrinology 77, 625 (1965)]

[2] = system: granuloma pouch; experiment: Granuloma pouch test according to Selye (systemic antiphlogistic effect); assay type: in vivo
Excerpt: (§2) Systemic antiphlogistic effect
(b) Granuloma pouch test according to Selye [J. Selye: Recent Progr. Horm. Res. 8, 117 (1953)]

[3] = system: granuloma pouch; experiment: Local pouch test according to Selye (local antiphlogistic effect); assay type: in vivo
Excerpt: as §1
(a) Local pouch test according to Selye [Bianchetti et al.: Arzneim. Forsch. 27, 2096 (1977)]

[4] = system: cotton granuloma; experiment: Cotton granuloma test (systemic antiphlogistic effect); assay type: in vivo
Excerpt: as §2
(c) Cotton granuloma test [C. A. Winter et al: J. Pharm. Exp. Therap. 141, 369 (1963)]

[5] = system: carrageenin-induced planter oedema; experiment: Inhibition of carrageenin-induced planter oedema (systemic antiphlogistic effect); assay type: in vivo
Excerpt: as §2
(a) Inhibition of carrageenin-induced planter oedema [Winter et al.: J. Pharm. Exp. Therap. […]]

[6] = system: cotton granuloma; experiment: Local cotton granuloma test (local antiphlogistic effect); assay type: in vivo
Excerpt: as §1
(b) Local cotton granuloma test [B. Silvestrini: Arzneim. Forsch. 19, 30 (1969)]

[7] = target: T1, rat liver glucocorticoid receptors (Rattus norvegicus, UniProt P06536); experiment: Affinity to rat liver glucocorticoid receptors (method of Baxter et al.); assay type: binding
T1 construct: from tissue; host or cells: rat liver
T1 sequence (P06536 1-795): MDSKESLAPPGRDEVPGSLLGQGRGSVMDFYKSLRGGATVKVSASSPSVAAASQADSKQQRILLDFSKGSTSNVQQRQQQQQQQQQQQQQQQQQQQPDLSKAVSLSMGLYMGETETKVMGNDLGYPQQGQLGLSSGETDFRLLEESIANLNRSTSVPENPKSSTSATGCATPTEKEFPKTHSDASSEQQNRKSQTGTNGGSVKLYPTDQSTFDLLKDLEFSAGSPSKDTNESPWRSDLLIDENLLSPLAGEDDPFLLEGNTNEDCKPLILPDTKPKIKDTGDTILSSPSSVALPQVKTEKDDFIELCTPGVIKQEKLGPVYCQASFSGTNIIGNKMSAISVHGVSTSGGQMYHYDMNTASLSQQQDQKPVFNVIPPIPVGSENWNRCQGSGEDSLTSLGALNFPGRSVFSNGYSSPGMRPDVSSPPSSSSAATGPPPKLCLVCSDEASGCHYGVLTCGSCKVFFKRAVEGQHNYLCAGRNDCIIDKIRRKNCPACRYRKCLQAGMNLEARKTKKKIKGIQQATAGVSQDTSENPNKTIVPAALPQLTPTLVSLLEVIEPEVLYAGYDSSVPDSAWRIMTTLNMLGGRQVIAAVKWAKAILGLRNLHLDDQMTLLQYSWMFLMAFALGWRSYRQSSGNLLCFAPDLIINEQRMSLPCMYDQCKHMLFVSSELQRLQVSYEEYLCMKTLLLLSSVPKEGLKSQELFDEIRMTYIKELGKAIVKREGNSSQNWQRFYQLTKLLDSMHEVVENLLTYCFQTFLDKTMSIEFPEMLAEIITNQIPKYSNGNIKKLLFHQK
Excerpt: A. Munck and K. Leung: "Receptors and Mechanism of Action of Steroid Hormones", Ed.

[8] = system: thymus weight; experiment: Thymus involution (reduction of thymus weight) in rats; assay type: in vivo
Protocol: (§3) It is known that glucocorticoids cause thymus involution [O. Greengard, R. Machovich: "Hydrocortisone Regulation of Thymidine Kinase in Thymus Involution and Hematopoietic Tissues", Biochem. Biophys. Acta 286, 382-388 (1972)], 50% reduction of thymus weight was observed on chickens with a dose of 0.01 mg/100 g and on rats with a dose of 0.001 mg/100 g for both TCA and 3-chloro-TCA.

[9] = system: thymus weight; experiment: Thymus involution (reduction of thymus weight) in chickens; assay type: in vivo
Protocol: as §3

[10] = target: T1, rat liver glucocorticoid receptors; settings: on the basis of literature data (Munck and Leung); read-out: apparent dissociation constant; cited from earlier work
[11] = rat liver glucocorticoid receptors, read-out: apparent dissociation constant

For CC(=O)OCC(=O)[C@@]12OC(C)(C)O[C@@H]1C[C@H]1[C@@H]3CC=C4C=C(Cl)C=C[C@]4(C)[C@@]3(F)[C@@H](O)C[C@@]12C [3-Chloro-TCA-21-acetate, 3-chloro-9α-fluoro-11β,16α,17α,21-tetrahydroxy-pregna-1,3,5-triene-20-one-16,17-acetonide-21-acetate], the Inhibition % ([1]; 0.02 mg/ml) was 10.0%, the Inhibition % ([1]; 0.10 mg/ml) was 17.8% and the Inhibition % ([2]; 0.5 mg/kg s.c.) was 56.6%. The Inhibition % ([2]; 1.5 mg/kg s.c.) was 73.3%, the Inhibition % ([3]; 0.033 mg/pouch) was 12.4% and the Inhibition % ([3]; 0.10 mg/pouch) was 26.3%. The Inhibition % ([4]; 0.5 mg/kg s.c.) was 33.0%, the Inhibition % ([4]; 1.5 mg/kg s.c.) was 91.0% and the Inhibition % ([5]; 2 mg/kg p.o.) was 8.9%. For the same compound, the Inhibition % ([5]; 6 mg/kg p.o.) was 9.6%, the Inhibition % ([6]; 0.033 mg/cotton) was 52.4% and the Inhibition % ([6]; 0.10 mg/cotton) was 35.3%.

Compound CC1(C)O[C@@H]2C[C@H]3[C@@H]4CC(Br)=C5C=C(Cl)C=C[C@]5(C)[C@@]4(F)[C@@H](O)C[C@]3(C)[C@]2(C(=O)CO)O1 [3-chloro-6-bromo-TCA, 3-chloro-6-bromo-9α-fluoro-11β,16α,17α,21-tetrahydroxy-pregna-1,3,5-triene-20-one-16,17-acetonide] has a Kd [7, 11] of 60 nM.

CC1(C)O[C@@H]2C[C@H]3[C@@H]4CC=C5C=C(Cl)C=C[C@]5(C)[C@@]4(F)[C@@H](O)C[C@]3(C)[C@]2(C(=O)CO)O1 [Example 3-Chloro-TCA, 3-chloro-9α-fluoro-11β,16α,17α,21-tetrahydroxy-pregna-1,3,5-triene-20-one-16,17-acetonide] showed an Inhibition % ([1]; 0.02 mg/ml) of 30.0%, an Inhibition % ([1]; 0.10 mg/ml) of 52.9% and an Inhibition % ([2]; 0.5 mg/kg s.c.) of 90.8%. The Inhibition % ([2]; 1.5 mg/kg s.c.) was 90.1%, the Kd [7, 11] was 30 nM and the Inhibition % ([3]; 0.033 mg/pouch) was 26.0%. The Inhibition % ([3]; 0.10 mg/pouch) was 32.3%, the Inhibition % ([4]; 0.5 mg/kg s.c.) was 22.0% and the Inhibition % ([4]; 1.5 mg/kg s.c.) was 26.0%. The Inhibition % ([5]; 2 mg/kg p.o.) was 30.2%, the Inhibition % ([5]; 6 mg/kg p.o.) was 38.7% and the “dose giving 50% reduction of thymus weight” value (from here on “dose giving 50% reduction”) [8] was 0.001 mg/100 g. For the same compound, the “dose giving 50% reduction” value [9] was 0.01 mg/100 g, the Inhibition % ([6]; 0.033 mg/cotton) was 24.1% and the Inhibition % ([6]; 0.10 mg/cotton) was 51.4%.

CC1(C)O[C@@H]2C[C@H]3[C@@H]4CC(F)=C5C=C(Cl)C=C[C@]5(C)[C@@]4(F)[C@@H](O)C[C@]3(C)[C@]2(C(=O)CO)O1 [Example 3-chloro-FCA, 3-chloro-6,9α-difluoro-11β,16α,17α,21-tetrahydroxy-pregna-1,3,5-triene-20-one-16,17-acetonide] showed a Kd [7, 11] of 25 nM.

For CC1(C)O[C@@H]2C[C@H]3[C@@H]4CCC5=CC(=O)C=C[C@]5(C)[C@@]4(F)[C@@H](O)C[C@]3(C)[C@]2(C(=O)CO)O1 [TCA, 9α-fluoro-11β,16α,17α,21-tetrahydroxy-pregna-1,4-diene-3,20-dione-16,17-acetonide, reference compound], the Kd [10] is listed as 10 nM, the “dose giving 50% reduction” value [8] is listed as 0.001 mg/100 g and the “dose giving 50% reduction” value [9] is listed as 0.01 mg/100 g.

In the case of CC1(C)O[C@@H]2C[C@H]3[C@@H]4C[C@H](F)C5=CC(=O)C=C[C@]5(C)[C@@]4(F)[C@@H](O)C[C@]3(C)[C@]2(C(=O)CO)O1 [fluocinolon-acetonide, 6α,9α-difluoro-11β,16α,17α,21-tetrahydro-pregna-1,4-diene-3,20-dione-16,17-acetonide, reference compound], the Kd [7] is reported as 15 nM.
